Key:
pBR322 plasmid DNA = test: DNA intercalation assay (topoisomerase I based plasmid DNA unwinding); type: biochemical; conditions: 10, 31.6, and 100 μM, human topoisomerase I
Experimental: DNA Intercalation Assay: A DNA unwinding assay was performed as previously described with minor modifications. Four Units of recombinant wild type human topoisomerase I (Topogen—Port Orange, Fla.) were incubated with reaction buffer (included with enzyme), ˜0.5 μg of pBR322 plasmid DNA, which is a mixture of form I and form II plasmid DNA, and water added to a final volume of 19 μL. The reactions were incubated at 37° C. for 30 min and then 1 μL of each compound was added to give a final concentration of 10, 31.6, and 100 μM (final solvent concentration of 1% DMSO) and the reaction mixture was incubated at 37° C. for another 30 min. The reaction was stopped by the addition of 5 μL gel loading dye. The samples were immediately loaded onto a 1% agarose gel and electrophoresis was performed at 50 V for 3 h at room temperature. Pictures of the gels were obtained using a Kodak Image Station 440 CF (Kodak—Rochester, N.Y.) equipped with a UV source.
This activity depends on the ability of these compounds to intercalate DNA, which is the proposed mechanism of cytotoxic action of amonafide and its analogs. Therefore, the intercalation of plasmid DNA by A1-A9 was compared with the intercalation by amonafide to determine if they behave similarly. A topoisomerase I (topo I) based plasmid DNA unwinding assay was used to determine the intercalation of each compound [1]. […]

[1] = biological target: T1, wild type recombinant human NAT2 (NAT2*4) (Homo sapiens, UniProt P11245); test: NAT2 acetylation assay (mass spectrometry); type: in vitro ADME; conditions: 200 μM compound, 100 μg NAT2*4, 400 μM AcetylCoA, 10 min
T1 construct: made in house; host or cells: E. coli
T1 sequence (P11245 1-290): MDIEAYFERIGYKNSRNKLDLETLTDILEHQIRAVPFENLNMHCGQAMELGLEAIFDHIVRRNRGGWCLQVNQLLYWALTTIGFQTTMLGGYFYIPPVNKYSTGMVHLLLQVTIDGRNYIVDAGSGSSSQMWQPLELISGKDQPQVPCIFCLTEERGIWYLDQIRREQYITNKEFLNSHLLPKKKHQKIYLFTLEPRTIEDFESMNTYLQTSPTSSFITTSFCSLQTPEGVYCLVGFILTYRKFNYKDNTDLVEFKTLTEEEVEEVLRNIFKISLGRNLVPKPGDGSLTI
Experimental: NAT2 Assay: This assay was performed using a wild type recombinant human NAT2 (NAT2*4) that was purified from E. coli as previously described. The volume of each reaction was 500 μL with 200 μM amonafide, A1, or A2, 100 μg NAT2*4, and 400 μM AcetylCoA (Sigma-Poole, UK). Reactions were run for 0 or 10 min and stopped by addition of 500 μL of 20% (w/v) trichloroacetic acid (TCA-Sigma-Poole, UK) to give a final TCA concentration of […], which precipitates the enzyme. Two control assays, lacking either enzyme or compound, were performed for each compound. The reaction mixtures were prepared for analysis by isolation of the compounds from the reaction matrix by solid-phase extraction. In brief, 100 μL of the reaction mixture was added to 1 mL of 2% acetic acid. The sorbent of an Oasis HLB 30 mg Extraction Cartridge (Waters Chromatography—Milford, Mass.) was conditioned with 1 mL of methanol and 1 mL of water, the prepared sample was applied to the conditioned sorbent, and the sorbent was washed with 1 mL of 5% methanol. Samples were eluted with 200 μL methanol followed by 800 μL of 0.1% formic acid in methanol. The eluant was analyzed by an API 3000 LC-MS/MS system (Applied Biosystems—Foster City, Calif.). Samples were infused at 5 μL/min directly into the TurboIonSpray Source (Applied Biosystems—Foster City, Calif.), which was operated in the positive ionization mode. […]

With `CN(C)CCN1C(=O)c2cccc3c(N)ccc(c23)C1=O` [A1, 6-amino-2-[2-(dimethylamino)ethyl]-1H-benz[de]isoquinoline-1,3(2H)-dione] the DNA intercalation (pBR322 plasmid DNA) was “intercalated DNA to a lesser extent than amonafide and the other derivatives”.
For `CN(C)CCN1C(=O)c2cccc3cc(N)cc(c23)C1=O` [amonafide, reference compound], the “N-acetylation by NAT2 (ratio of acetylated to parent compound)” value [1] was “extensively acetylated” and the “N-acetylation by NAT2 (ratio of acetylated to parent compound)” value ([1]; listed as Amonafide) was “underwent extensive acetylation”.
